Results published in patent US20250197363A1, “THIADIAZOLE COMPOUND, AND PHARMACEUTICAL COMPOSITION FOR PREVENTING OR TREATING INFLAMMATORY DISEASES, INCLUDING SAME” (Cureverse Incorporated, priority 2022, published 2025).

Experiments:
RAW 264.7 cells = test: Cytotoxicity, CCK-8 assay; format: cell-based; conditions: Raw264.7 cells; 12 μM, 25 μM, 50 μM
Method: To evaluate the cytotoxicity of the sample, cell proliferation was tested using a cell counting kit [CCK-8; Dojindo Laboratories (Tokyo, Japan)]. RAW 264.7 cell 1×10^4 cells/mL were dispensed into a well plate, and after pre-culturing for 20 hours, […] of LPS and example compounds were added at different concentrations and cultured for 24 hours in an incubator at 37° C. and 5% CO2. After culturing, 10 μl CCK-8 reagent was added and recultured for 1 to 2 hours, and the absorbance was measured. The absorbance was measured at 450 nm using a microplate reader [BMG Labtech (located in Offenburg, Germany)].
In order to evaluate the cytotoxicity of the compound of Example 1, Raw264.7 cells, a macrophage cell line, were treated with the compound of Example 1 at concentrations of 0, 12 μM, 25 μM, and 50 μM, respectively, and then CCK8 assay was performed according to <Experiment Method> 3 above. […] Specifically, cell proliferation was similar to that of the vehicle group even at a concentration of up to 50 μM, and no significance was detected.

[1] = test system: macrophage infiltration into carrageenan-injected sole; test: Macrophage tracking by fluorescence imaging in carrageenan-induced acute inflammation; format: in vivo, mouse; conditions: C57BL/6 mice, 50 mg/kg oral, 6 hours after inducing inflammation, versus vehicle group
Method: 2 mL of thioglycollate medium (BD, USA) was injected into the abdominal cavity of a C57Bl/6 mouse, and three days later, the mouse was cervically dislocated, and 8 mL of Dulbecco's modified Eagle's medium (DMEM) was injected into the abdominal cavity to collect cells. After centrifugation, the cells were suspended in DMEM containing 10% fetal bovine serum (FBS) and 1% penicillin-streptomycin and cultured in a 5% CO2 incubator at 37° C. for 2 hours. Non-adherent cells were removed, and the remaining cells were used for experiments.
The acute anti-inflammatory activity of the example compound was evaluated using a macrophage tracking technique with fluorescence imaging. Macrophages extracted from the mouse abdominal cavity were labeled with Vybrant™ DiD Cell-Labeling Solution and then administered to the mouse via intravenous injection. The next day, 50 mg/kg of the example compound was orally administered, and 1 hour later, a 0.1% Carrageenan (CG) solution or PBS was subcutaneously injected into the right or left sole of the mouse. Fluorescent images were obtained using IVIS Lumina III at the designated time.
The inflammation model induced by λ-carrageenan in the mouse foot region is an acute arthritis model and is useful when checking the effect of suppressing edema due to osteoarthritis. […]

pIKKαβ = pIKKαβ (Mus musculus (Mouse), UniProt O88351+Q60680); test: pIKKαβ protein expression, Western blot; format: cell-based; conditions: LPS-stimulated Raw264.7; 12 μM, 25 μM, 50 μM
Method: (§1) The cells were washed twice with cold PBS and lysed with RIPA buffer (Roche) containing a complete protease inhibitor cocktail. Protein concentration was quantified using the BCA protein assay kit (Pierce, IL, USA), and 30 μL of lysate was separated by 10% SDS-PAGE. The separated proteins were transferred to a polyvinylidene difluoride (PVDF) membrane (Biorad, CA, USA) at 70 mA for 1 hour and 30 minutes, then blocked with tris-buffered saline (TBST; pH 7.5) containing 50 mg/mL skim milk at room temperature for 2 hours. As antibodies to examine the expression levels of iNOS and pIKKαβ, anti-iNOS and pIKKαβ were used, diluted 1:1000 and reacted at room temperature for 2 hours, followed by washing three times with TBST. As secondary antibodies, horseradish peroxidase (HRP)-conjugated anti-mouse IgG and anti-rabbit IgG were diluted 1:2000 and reacted at room temperature for 1 hour, followed by washing three times with TBST. Peroxidase activity was detected using ECL-Plus according to the manufacturer's protocol.
Nuclear factor-kappa B (NF-κB), which plays an important role in inflammatory responses, is a transcription factor that regulates the synthesis of various cytokines, chemokines, and growth factors. […]

[2] = target: PPARδ ligand-binding domain (LBD) (Homo sapiens (Human), UniProt Q03181); test: PPARδ activation, TR-FRET coactivator peptide recruitment (enzyme activity EC50); format: biochemical; conditions: GST-PPARδ LBD 5 nM, read-out: Enzymatic activity (EC50)
TNF-α = TNF-α secretion, cytometric bead array; format: cell-based; conditions: LPS-stimulated Raw264.7, 24 hours; 12 μM, 25 μM, 50 μM
Text: (§2) The supernatant was dispensed using the same method as used for measuring NO. High amounts of TNF-α and IL-6 in the supernatant were quantified using the multiplex bead-based immunoassay (BD™ Cytometric Bead Array) system and flow cytometry (BD Biosciences).
(§3) LPS, well known as an endotoxin present in the outer cell membrane of Gram-negative bacteria, stimulates macrophages or monocytes to promote the secretion of inflammatory cytokines such as tumor necrosis factor-α (TNF-α), interleukin-1l (IL-1), and interleukin-6 (IL-6). Accordingly, in order to analyze the effect of the compound of Example 1 on inhibiting cytokine secretion, RAW264.7 cells were cultured for 24 hours by adding 1 mg/mL of LPS and the compound of Example 1 at concentrations of 0, 12 μM, 25 μM, and 50 μM, and the concentrations of IL-6 and TNFα in the culture supernatant were measured.

IL-6 = IL-6 secretion, cytometric bead array; format: cell-based; conditions: LPS-stimulated Raw264.7, 24 hours; 12 μM, 25 μM, 50 μM
Text: as §2, §3

NF-κB = test: NF-κb promoter-luciferase assay; format: cell-based; conditions: LPS-treated Raw264.7/NF-κb-luciferase cells; 12 μM, 25 μM, 50 μM
Method: Raw264.7/NF-kb-luc cells were treated with 1 mg/mL LPS and various concentrations of compounds using the same method as used for measuring NO. 16 hours later, after adding the D-luciferin solution to the cells, luminescence images were obtained using the IVIS Lumina III. Quantification of the luminescence images was performed using Living Imaging software.
Nuclear factor-kappa B (NF-κB), which plays an important role in inflammatory responses, is a transcription factor that regulates the synthesis of various cytokines, chemokines, and growth factors. NFκB is composed of p50 and p65, enters the nucleus, acts as a transcription factor, and synthesizes iNOS, COX-2, and inflammation-related cytokines, and generally binds to the inhibitor NF-κBα (IκBα) in the cytoplasm, thereby inhibiting the action of NF-κB. In order to confirm whether NF-κb-related cell signaling induced in Raw264.7 cells was affected by the compound of Example 1, NF-κb promoter-luciferase analysis and pIKKαβ expression change analysis were performed in Raw264.7 cells using 1 mg/mL LPS and the compound of Example 1 at concentrations of 0, 12 μM, 25 μM, and 50 μM.

iNOS = iNOS (Mus musculus (Mouse), UniProt P29477); test: iNOS protein expression, Western blot; format: cell-based; conditions: LPS-stimulated Raw264.7; 12 μM, 25 μM, 50 μM
Method: as §1

[3] = test system: LPS-stimulated Raw264.7 cells; test: Nitric oxide (NO) production, Griess reagent; format: cell-based; conditions: LPS-stimulated Raw264.7, 24 hours
Method: The concentration of NO was measured using the nitrite concentration in the culture medium with the Griess reagent system (Promega). Raw264.7 cells were adjusted to 2.5×10^5 cells/mL using DMEM medium, inoculated into 24-well plates, and pre-cultured for 20 hours in a 5% CO2 incubator. The cells were treated with […] of LPS and various concentrations of the example compounds and recultured for 24 hours. After obtaining the supernatant of the culture medium, the NO concentration was measured using the Griess reagent system according to the protocol provided by the manufacturer. The absorbance was measured at 540 nm using a microplate reader [BMG Labtech (located in Offenburg, Germany)]. The concentration of NO in the cell culture medium was calculated by comparing it with a standard curve for each concentration of sodium nitrite (NaNO2).
1 mg/mL lipopolysaccharide (LPS) and the compounds of Example 1 at concentrations of 0, 12 μM, 25 μM, and 50 μM were added to Raw264.7 cells, cultured for 24 hours, and changes in NO concentration in the upper layer of the culture were analyzed.

Sequence of PPARδ ligand-binding domain (LBD) (Q03181 211-439): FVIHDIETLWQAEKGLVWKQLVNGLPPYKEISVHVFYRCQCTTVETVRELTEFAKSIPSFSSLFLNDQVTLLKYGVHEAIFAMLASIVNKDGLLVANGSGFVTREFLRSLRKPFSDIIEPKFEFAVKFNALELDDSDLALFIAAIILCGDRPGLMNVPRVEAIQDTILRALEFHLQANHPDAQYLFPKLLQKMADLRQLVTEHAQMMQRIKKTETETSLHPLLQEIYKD

| SMILES | EC50 [2] | other results |
| --- | --- | --- |
| Cc1cc(SCc2nnc(-c3ccc(C(F)(F)F)cc3)s2)ccc1OCC(=O)O [Example 1, 2-(2-methyl-4-(((5-(4-(trifluoromethyl)phenyl)-1,3,4-thiadiazol-2-yl)methyl)thio)phenoxy)acetic acid] | 39.9 nM | cytotoxicity (CCK8 assay, cell proliferation) (RAW 264.7 cells): no cytotoxicity at all concentrations; fluorescent signal of labeled macrophages in sole injected with 0.1% CG [1]: lower fluorescent signal; pIKKαβ protein expression (pIKKαβ): effectively reduced; production of TNFα (TNF-α): effectively inhibited; production of IL-6 (IL-6): effectively inhibited; NF-κb-luciferase luminescent signals (NF-κB): decreased in a concentration-dependent manner; iNOS protein expression (iNOS): significantly suppressed; NO concentration produced ([3]; compound 12.5 μM (0 μM control 22.8±1.3 μM)): 18.9 ± 0.3 µM; NO concentration produced ([3]; compound 25 μM (0 μM control 22.8±1.3 μM)): 14.8 ± 0.54 µM; NO concentration produced ([3]; compound 50 μM (0 μM control 22.8±1.3 μM)): 2.41 ± 0.24 µM |
| Cc1cc(SCc2nnc(-c3ccc(C(F)(F)F)cc3)s2)ccc1OC(C)C(=O)O (stereo not shown) [Example 2, 2-(2-methyl-4-(((5-(4-(trifluoromethyl)phenyl)-1,3,4-thiadiazol-2-yl)methyl)thio)phenoxy)propanoic acid] | 420 nM |  |
| Cc1cc(SCc2nnc(-c3ccc(C(F)(F)F)cc3)s2)ccc1OC(C)(C)C(=O)O [Example 3, 2-methyl-2-(2-methyl-4-(((5-(4-(trifluoromethyl)phenyl)-1,3,4-thiadiazol-2-yl)methyl)thio)phenoxy)propanoic acid] | 374 nM |  |
| Cc1cc(SCc2nnc(-c3ccc(C(F)(F)F)cc3)s2)ccc1OCC(=O)NC#N [Example 8, N-cyano-2-(2-methyl-4-(((5-(4-(trifluoromethyl)phenyl)-1,3,4-thiadiazol-2-yl)methyl)thio)phenoxy)acetamide] | 504 nM |  |
| Cc1cc(SCc2nnc(-c3ccc(F)cc3)s2)ccc1OCC(=O)O [Example 9, 2-(4-(((5-(4-fluorophenyl)-1,3,4-thiadiazol-2-yl)methyl)thio)-2-methylphenoxy)acetic acid] | 2440 nM |  |
| Cc1cc(SCc2nnc(-c3ccc(F)c(F)c3)s2)ccc1OCC(=O)O [Example 12, 2-(4-(((5-(3,4-difluorophenyl)-1,3,4-thiadiazol-2-yl)methyl)thio)-2-methylphenoxy)acetic acid] | 663 nM |  |
| Cc1cc(SCc2nnc(-c3ccc(F)c(F)c3)s2)ccc1OC(C)C(=O)O (stereo not shown) [Example 13, 2-(4-(((5-(3,4-difluorophenyl)-1,3,4-thiadiazol-2-yl)methyl)thio)-2-methylphenoxy)propanoic acid] | 6160 nM |  |
| Cc1cc(SCc2nnc(-c3cc(F)c(F)c(F)c3)s2)ccc1OCC(=O)O [Example 15, 2-(2-methyl-4-(((5-(3,4,5-trifluorophenyl)-1,3,4-thiadiazol-2-yl)methyl)thio)phenoxy)acetic acid] | 4010 nM |  |
| Cc1cc(SCc2nnc(-c3ccc(F)c(Cl)c3)s2)ccc1OCC(=O)O [Example 16, 2-(4-(((5-(3-chloro-4-fluorophenyl)-1,3,4-thiadiazol-2-yl)methyl)thio)-2-methylphenoxy)acetic acid] | 1350 nM |  |
| Cc1cc(SCc2nnc(-c3ccc(C(F)(F)F)c(F)c3)s2)ccc1OC(C)(C)C(=O)O [Example 21, 2-(4-(((5-(3-fluoro-4-(trifluoromethyl)phenyl)-1,3,4-thiadiazol-2-yl)methyl)thio)-2-methylphenoxy)-2-methylpropanoic acid] | 2660 nM |  |
| Cc1ccc(-c2nnc(CSc3ccc(OC(C)C(=O)O)c(C)c3)s2)cc1 (stereo not shown) [Example 23, 2-(2-methyl-4-(((5-(p-tolyl)-1,3,4-thiadiazol-2-yl)methyl)thio)phenoxy)propanoic acid] | 5700 nM |  |
| Cc1ccc(-c2nnc(CSc3ccc(OC(C)(C)C(=O)O)c(C)c3)s2)cc1 [Example 24, 2-methyl-2-(2-methyl-4-(((5-(p-tolyl)-1,3,4-thiadiazol-2-yl)methyl)thio)phenoxy)propanoic acid] | 1250 nM |  |
| Cc1cc(SCc2nnc(-c3ccc(OC(F)(F)F)cc3)s2)ccc1OCC(=O)O [Example 25, 2-(2-methyl-4-(((5-(4-(trifluoromethoxy)phenyl)-1,3,4-thiadiazol-2-yl)methyl)thio)phenoxy)acetic acid] | 42 nM |  |
| Cc1cc(SCc2nnc(-c3ccc(OC(F)(F)F)cc3)s2)ccc1OC(C)C(=O)O (stereo not shown) [Example 26, 2-(2-methyl-4-(((5-(4-(trifluoromethoxy)phenyl)-1,3,4-thiadiazol-2-yl)methyl)thio)phenoxy)propanoic acid] | 1240 nM |  |
| Cc1cc(SCc2nnc(-c3ccc(OC(F)(F)F)cc3)s2)ccc1OC(C)(C)C(=O)O [Example 27, 2-methyl-2-(2-methyl-4-(((5-(4-(trifluoromethoxy)phenyl)-1,3,4-thiadiazol-2-yl)methyl)thio)phenoxy)propanoic acid] | 595 nM |  |
